Data: patent US9278996B2, “Dolastatin-10 derivative, method of producing the same and anticancer drug composition containing the same” (CELLTRION, INC., priority 2012, dated 2016)

Test system: breast cancer (BT-474)
Experiment: Anticancer activity assay (WST-8 cell growth), BT-474
Type: cell-based
Conditions: Homo sapiens, BT-474, 96 h, read-out: IC50 (nM) BT-474
Experimental: The compounds of the present invention were assayed for inhibitory activity against 7 cancer cell lines as breast cancer (BT-474), human epithelial cancer (A-431), non-small cell lung cancer (NCI-H460), colon cancer (HT-29), colon cancer (SW-620), breast cancer (MDA-MB-231) and breast cancer (MCF-7).
Briefly, a suspension of each cancer cell line was serially diluted, and plated at a density of 2˜3×10^3 cells/well into 96-well microplates, followed by incubation at 37° C. for 4 day in a 5% CO2 atmosphere. Cell growth in a monolayer was measured using WST-8 reagemt (Dojindo, Japan).
IC50 values of the compounds against the cancer cell lines were calculated as compound concentrations at which the cells were grown by 50% OD of the control.

| Compound | IC50 [nM] |
| --- | --- |
| CC[C@H](C)[C@@H]([C@@H](CC(=O)N1C[C@@H](O)C[C@H]1[C@H](OC)[C@@H](C)C(=O)NCCc1c(F)cccc1F)OC)N(C)C(=O)[C@@H](NC(=O)[C@@H](NC)C(C)C)C(C)C [Compound I-42, (2S)—N-((3R,4S)-1-((2S,4S)-2-((1R,2R)-3-((2,6-difluorophenethyl)amino)-1-methoxy-2-methyl-3-oxopropyl)-4-hydroxypyrrolidin-1-yl)-3-methoxy-5-methyl-1-oxoheptan-4-yl)-N,3-dimethyl-2-((S)-3-methyl-2-(methylamino)butaneamido)butanamide] | 0.74 |
| CC[C@H](C)[C@@H]([C@@H](CC(=O)N1C[C@H](OC)C[C@@H]1[C@H](OC)[C@@H](C)C(=O)N[C@H](C)C(=O)c1cccc(OC)c1)OC)N(C)C(=O)[C@@H](NC(=O)[C@@H](NC)C(C)C)C(C)C [Compound I-14, (S)—N-((3R,4S,5S)-3-methoxy-1-((2R,4R)-4-methoxy-2-((1R,2R)-1-methoxy-3-(((R)-1-(3-methoxyphenyl)-1-oxopropan-2-yl)amino)-2-methyl-3-oxopropyl)pyrrolidin-1-yl)-5-methyl-1-oxoheptan-4-yl)-N,3-dimethyl-2-((S)-3-methyl-2-(methylamino)butaneamido)butanamide] | 0.29 |
| CC[C@H](C)[C@@H]([C@@H](CC(=O)N1CSC[C@@H]1[C@H](OC)[C@@H](C)C(=O)NCCc1c(F)cccc1F)OC)N(C)C(=O)[C@@H](NC(=O)[C@@H](NC)C(C)C)C(C)C [Compound I-32, (S)—N-((3R,4S,5S)-1-((S)-4-((1R,2R)-3-((2,6-difluorophenethyl)amino)-1-methoxy-2-methyl-3-oxopropyl)thiazolidin-3-yl)-3-methoxy-5-methyl-1-oxoheptan-4-yl)-N,3-dimethyl-2-((S)-3-methyl-2-(methylamino)butaneamido)butanamide] | 0.64 |
| CC[C@H](C)[C@@H]([C@@H](CC(=O)N1C[C@H](OC)C[C@@H]1[C@H](OC)[C@@H](C)C(=O)N[C@H](C)C(=O)c1ccc(F)cc1)OC)N(C)C(=O)[C@@H](NC(=O)[C@@H](NC)C(C)C)C(C)C [Compound I-11, (S)—N-((3R,4S,5 S)-1-((2R,4R)-2-((1R,2R)-3-(((R)-1-(4-fluorophenyl)-1-oxopropan-2-yl)amino)-1-methoxy-2-methyl-3-oxopropyl)-4-methoxypyrrolidin-1-yl)-3-methoxy-5-methyl-1-oxoheptan-4-yl)-N,3-dimethyl-2-((S)-3-methyl-2-(methylamino)butaneamido)butanamide] | 0.78 |
| CC[C@H](C)[C@@H]([C@@H](CC(=O)N1C[C@H](OC)C[C@H]1[C@H](OC)[C@@H](C)C(=O)NCC(=O)c1ccc(OC)cc1F)OC)N(C)C(=O)[C@@H](NC(=O)[C@@H](NC)C(C)C)C(C)C [Compound I-31] | 0.54 |
| CC[C@H](C)[C@@H]([C@@H](CC(=O)N1C[C@H](OC)C[C@@H]1[C@H](OC)[C@@H](C)C(=O)N[C@H](C)C(=NO)c1ccc(F)cc1)OC)N(C)C(=O)[C@@H](NC(=O)[C@H](C(C)C)N(C)C)C(C)C [Compound I-21, (S)-2-((S)-2-(dimethylamino)-3-methylbutaneamido)-N-((3R,4S,5S)-1-((2R,4R)-2-((1R,2R)-3-(((R)-1-(4-fluorophenyl)-1-(hydroxyimino)propan-2-yl)amino)-1-methoxy-2-methyl-3-oxopropyl)-4-methoxypyrrolidin-1-yl)-3-methoxy-5-methyl-1-oxoheptan-4-yl)-N,3-dimethylbutanamide] | 0.59 |
| CC[C@H](C)[C@@H]([C@@H](CC(=O)N1C[C@H](OC)C[C@@H]1[C@H](OC)[C@@H](C)C(=O)N[C@H](C)C(=O)c1ccc(OC)cc1)OC)N(C)C(=O)[C@@H](NC(=O)[C@@H](NC)C(C)C)C(C)C [Compound I-15, (S)—N-((3R,4S,5S)-3-methoxy-1-((2R,4R)-4-methoxy-2-((1R,2R)-1-methoxy-3-(((R)-1-(4-methoxyphenyl)-1-oxopropan-2-yl)amino)-2-methyl-3-oxopropyl)pyrrolidin-1-yl)-5-methyl-1-oxoheptan-4-yl)-N,3-dimethyl-2-((S)-3-methyl-2-(methylamino)butaneamido)butanamide] | 0.51 |
| CC[C@H](C)[C@@H]([C@@H](CC(=O)N1C[C@H](OC)C[C@@H]1[C@H](OC)[C@@H](C)C(=O)N[C@@H](C)C(=O)c1cc(F)cc(F)c1)OC)N(C)C(=O)[C@@H](NC(=O)[C@@H](NC)C(C)C)C(C)C [Compound I-16, (S)—N-((3R,4S,5S)-1-((2R,4R)-2-((1R,2R)-3-(((S)-1-(3,5-difluorophenyl)-1-oxopropan-2-yl)amino)-1-methoxy-2-methyl-3-oxopropyl)-4-methoxypyrrolidin-1-yl)-3-methoxy-5-methyl-1-oxoheptan-4-yl)-N,3-dimethyl-2-((S)-3-methyl-2-(methylamino)butaneamido)butanamide] | 0.65 |
| CC[C@H](C)[C@@H]([C@@H](CC(=O)N1C[C@H](OC)C[C@@H]1[C@H](OC)[C@@H](C)C(=O)N[C@H](C)C(=O)c1c(F)cccc1F)OC)N(C)C(=O)[C@@H](NC(=O)[C@@H](NC)C(C)C)C(C)C [Compound I-18, (S)—N-((3R,4S,5S)-1-((2R,4R)-2-((1R,2R)-3-(((R)-1-(2,6-difluorophenyl)-1-oxopropan-2-yl)amino)-1-methoxy-2-methyl-3-oxopropyl)-4-methoxypyrrolidin-1-yl)-3-methoxy-5-methyl-1-oxoheptan-4-yl)-N,3-dimethyl-2-((S)-3-methyl-2-(methylamino)butaneamido)butanamide] | 0.88 |
| CC[C@H](C)[C@@H]([C@@H](CC(=O)N1C[C@H](OC)C[C@H]1[C@H](OC)[C@@H](C)C(=O)N[C@@H](C)C(=O)c1ccccc1)OC)N(C)C(=O)[C@@H](NC(=O)[C@@H](NC)C(C)C)C(C)C [Compound I-7, (2 S)—N-((3R,4S)-3-methoxy-1-((2S,4R)-4-methoxy-2-((1R,2R)-1-methoxy-2-methyl-3-oxo-3-(((S)-1-oxo-1-phenylpropan-2-yl)amino)propyl)pyrrolidin-1-yl)-5-methyl-1-oxoheptan-4-yl)-N,3-dimethyl-2-((S)-3-methyl-2-(methylamino)butaneamido)butanamide] | 0.62 |
| CC[C@H](C)[C@@H]([C@@H](CC(=O)N1C[C@H](OC)C[C@@H]1[C@H](OC)[C@@H](C)C(=O)NCC(=NO)c1cc(Br)ccc1C)OC)N(C)C(=O)[C@@H](NC(=O)[C@H](C(C)C)N(C)C)C(C)C [Compound I-22, (S)—N-((3R,4S,5S)-1-((2R,4R)-2-((1R,2R)-3-((2-(5-bromo-2-methylphenyl)-2-(hydroxyimino)ethyl)amino)-1-methoxy-2-methyl-3-oxopropyl)-4-methoxypyrrolidin-1-yl)-3-methoxy-5-methyl-1-oxoheptan-4-yl)-2-((S)-2-(dimethylamino)-3-methylbutaneamido)-N,3-dimethylbutanamide] | 0.91 |
| CC[C@H](C)[C@@H]([C@@H](CC(=O)N1C[C@H](OC)C[C@H]1[C@H](OC)[C@@H](C)C(=O)NCC(=O)c1ccccc1C)OC)N(C)C(=O)[C@@H](NC(=O)[C@@H](NC)C(C)C)C(C)C [Compound I-28, (S)—N-((3R,4S,5S)-3-methoxy-1-((2S,4R)-4-methoxy-2-((1R,2R)-1-methoxy-2-methyl-3-oxo-3-((2-oxo-2-(o-tolyl)ethyl)amino)propyl)pyrrolidin-1-yl)-5-methyl-1-oxoheptan-4-yl)-N,3-dimethyl-2-((S)-3-methyl-2-(methylamino)butaneamido)butanamide] | 0.65 |
| CC[C@H](C)[C@@H]([C@@H](CC(=O)N1C[C@@H](N)C[C@H]1[C@H](OC)[C@@H](C)C(=O)NCCc1c(F)cccc1F)OC)N(C)C(=O)[C@@H](NC(=O)[C@H](C(C)C)N(C)C)C(C)C [Compound I-44, (2S)—N-((3R,4S)-1-((2S,4S)-4-amino-2-((1R,2R)-3-((2,6-difluorophenethyl)amino)-1-methoxy-2-methyl-3-oxopropyl)pyrrolidin-1-yl)-3-methoxy-5-methyl-1-oxoheptan-4-yl)-2-((S)-2-(dimethylamino)-3-methylbutaneamido)-N,3-dimethylbutanamide] | 0.17 |
| CC[C@H](C)[C@@H]([C@@H](CC(=O)N1C[C@H](OC)CC1[C@H](OC)[C@@H](C)C(=O)NCCc1cccc(F)c1)OC)N(C)C(=O)[C@@H](NC(=O)[C@@H](NC)C(C)C)C(C)C (stereo partly shown) [Compound I-2] | 0.7 |
| CC[C@H](C)[C@@H]([C@@H](CC(=O)N1C[C@H](OC)C[C@H]1[C@H](OC)[C@@H](C)C(=O)NCC(=O)c1ccc(C)cc1)OC)N(C)C(=O)[C@@H](NC(=O)[C@@H](NC)C(C)C)C(C)C [Compound I-29, (S)—N-((3R,4S,5S)-3-methoxy-1-((2S,4R)-4-methoxy-2-((1R,2R)-1-methoxy-2-methyl-3-oxo-3-((2-oxo-2-(p-tolyl)ethyl)amino)propyl)pyrrolidin-1-yl)-5-methyl-1-oxoheptan-4-yl)-N,3-dimethyl-2-((S)-3-methyl-2-(methylamino)butaneamido)butanamide] | 0.61 |
| CC[C@H](C)[C@@H]([C@@H](CC(=O)N1C[C@H](OC)C[C@H]1[C@H](OC)[C@@H](C)C(=O)NCCc1ccccn1)OC)N(C)C(=O)[C@@H](NC(=O)[C@@H](NC)C(C)C)C(C)C [Compound I-38, (2S)—N-((3R,4S)-3-methoxy-1-((2S,4R)-4-methoxy-2-((1R,2R)-1-methoxy-2-methyl-3-oxo-3-((2-(pyridin-2-yl)ethyl)amino)propyl)pyrrolidin-1-yl)-5-methyl-1-oxoheptan-4-yl)-N,3-dimethyl-2-((S)-3-methyl-2-(methylamino)butaneamido)butanamide] | 1.32 |
